IC50 and Ki data for 13 compounds are collected here from patent US20250100993A1, “2-SUBSTITUTED THIAZOLE HSD17B13 INHIBITORS AND USES THEREOF” (Inipharm, Inc., priority 2022, published 2025).

pIC50, pKi: −log10 of the molar value.

Sequence of HSD17B13 (Q7Z5P4 20-300): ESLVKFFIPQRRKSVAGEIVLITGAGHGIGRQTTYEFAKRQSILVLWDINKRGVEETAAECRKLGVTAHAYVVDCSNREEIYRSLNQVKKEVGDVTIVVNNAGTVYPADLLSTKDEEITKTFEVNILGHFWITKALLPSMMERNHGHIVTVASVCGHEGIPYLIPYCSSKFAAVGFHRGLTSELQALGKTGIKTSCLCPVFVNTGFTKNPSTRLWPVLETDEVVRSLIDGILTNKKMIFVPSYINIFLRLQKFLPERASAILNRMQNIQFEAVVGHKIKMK

In the first assay the target is HSD17B13 (Homo sapiens (Human), UniProt Q7Z5P4). As to the kind of experiment: LC/MS estrone detection assay for HSD17B13 activity (estradiol to estrone). The class given is biochemical. The conditions noted are these: estradiol substrate, LC-MS/MS estrone detection. As for the experimental part:
The liquid chromatography/mass spectrometry (LC/MS) estrone detection assay monitors the conversion of estradiol to estrone by HSD17B13. This assay was undertaken in a 96 wp format (Eppendorf deep well Plate 96/500) in an 80 μl reaction volume containing: 4 μM of Estradiol (E2; Cayman; Ser. No. 10/006,315), 6 mM NAD+(Sigma; #N0623) and 30 nM HSD17B13 enzyme (in-house; E. coli expressed His-tagged, purified, soluble protein) in a reaction containing 1M potassium phosphate buffer pH 7.4, with 0.5% vehicle (DMSO). Reactions were incubated for 2 hours at 26.5° C., and estradiol (E2) conversion to estrone (E1) was quantitated by LC-MS/MS based analyte detection for both E2 and E1 using LCMS grade reagents.
Reactions were terminated by the addition of two volumes of acetonitrile (MeCN; LCMS grade; CAS #75/05/8) containing deuterated (D4)-E1 used as internal standard (Clear Synth; #CS-T-54273; 500 ng/mL final concentration). Samples were applied to pre-prepared Bond Elut-C18 extraction cartridges (3 mL; Agilent; Ser. No. 12/102,028), washed and eluted in MeCN. Eluates were dried under nitrogen and re-suspended in 60% methanol (LCMS grade methanol; CAS #67/56/1) before submission for analysis. Aqueous linearity for E2 and E1 were included for quantification.
Analysis of samples was undertaken on a XBridge BEH C18 column (Waters; #186003033) using 0.1% Diethyl Amine in MeCN (mobile phase A; DEA CAS #109-89-7) and 0.1% Diethyl Amine in milli-Q water (mobile phase B) in a 3 min gradient allowing 25% B. Analytes were detected in negative mode using MRM analysis, with E2 having a RT of 1.85 min and E1 having a RT of 2 min. Activity of the enzyme, in the absence of NAD+, was used to evaluate specificity of conversion. Enzyme activity in the presence of test samples was expressed as a percentage of the uninhibited enzyme activity, and plotted versus inhibitor concentration. Non-linear regression was performed using a four-parameter logistic model and GraphPad Prism software (GraphPad Software, La Jolla, CA). All assessments were undertaken in duplicate evaluations and pooled during extraction process and subsequently injected as duplicates for LC-MS/MS analysis.
One may read the pIC50 as the IC50 on a negative log10 scale, so that one unit is a factor of ten. A low value points to a large IC50. With `O=C(Nc1scnc1C(=O)NCc1c(F)cccc1F)c1cc(Cl)c(O)c(Cl)n1` [Example 33, 5-(4,6-dichloro-5-hydroxypicolinamido)-N-(2,6-difluorobenzyl)thiazole-4-carboxamide], the pIC50 is 6.30 to 7.00.
Same read-out and setting: the value for `O=C(Nc1ccc(-c2ccccc2)nc1C(=O)NCc1ccccc1OC(F)(F)F)c1cc(Cl)c(O)c(Cl)c1` [Example 57, 3-(3,5-dichloro-4-hydroxybenzamido)-6-phenyl-N-(2-(trifluoromethoxy)benzyl)picolin amide] was no less than 7.00; that for `O=C(Nc1cccnc1C(=O)NCc1ccccc1OC(F)(F)F)c1cc(Cl)c(O)c(Cl)n1` [Example 52, 4,6-dichloro-5-hydroxy-N-(2-((2-(trifluoromethoxy)benzyl)carbamoyl)pyridin-3-yl)picolinamide] was 6.30 to 7.00.
Consider `CCn1c(=O)n(Cc2ccccc2C(F)(F)F)c(=O)c2c(NC(=O)c3cc(Cl)c(O)c(Cl)n3)cccc21` [Example 18, 4,6-dichloro-N-(1-ethyl-2,4-dioxo-3-(2-(trifluoromethyl)benzyl)-1,2,3,4-tetrahydroquinazolin-5-yl)-5-hydroxypicolinamide], for which the pIC50 is 6.30 to 7.00.
In the case of `Cc1nc2c(F)ccc(NC(=O)c3cc(Cl)c(O)c(Cl)n3)c2c(=O)n1[C@H]1CC[C@@H]1c1ccccc1` [Example 15, 4,6-dichloro-N-(8-fluoro-2-methyl-4-oxo-3-((1S,2R)-2-phenylcyclobutyl)-3,4-dihydroquinazolin-5-yl)-5-hydroxypicolinamide], the pIC50 was 6.30 to 7.00.
Compound `Cn1ncc(C(=O)NCc2ccccc2C(F)(F)F)c1NC(=O)c1cc(Cl)c(O)c(Cl)c1` [Example 7, 5-(3,5-dichloro-4-hydroxybenzamido)-1-methyl-N-(2-(trifluoromethyl)benzyl)-1H-pyrazole-4-carboxamide] had a pIC50 of 5.00 to 6.00.
Compound `O=C(Nc1nn(C2CC2)cc1C(=O)NCc1ccccc1C(F)(F)F)c1cc(Cl)c(O)c(Cl)n1` [Example 54, 4,6-dichloro-N-(1-cyclopropyl-4-((2-(trifluoromethyl)benzyl)carbamoyl)-1H-pyrazol-3-yl)-5-hydroxypicolinamide] gave a pIC50 of 5.00 to 6.00.
`O=C(Nc1cccc2c1c(=O)n(Cc1ccccc1C(F)(F)F)c(=O)n2C1CC1)c1cc(Cl)c(O)c(Cl)n1` [Example 56, 4,6-dichloro-N-(1-cyclopropyl-2,4-dioxo-3-(2-(trifluoromethyl)benzyl)-1,2,3,4-tetrahydroquinazolin-5-yl)-5-hydroxypicolinamide]: the pIC50 is 6.00 to 6.30.
As to `O=C(Nc1nn(-c2ccccc2)cc1C(=O)NCc1ccccc1C(F)(F)F)c1cc(Cl)c(O)c(Cl)c1` [Example 9, 3-(3,5-dichloro-4-hydroxybenzamido)-1-phenyl-N-(2-(trifluoromethyl)benzyl)-1H-pyrazole-4-carboxamide], the pIC50 was no less than 7.00.

Staying with this assay, now noted: estradiol substrate, LCMS; read-out: HSD17B13 Inhibition_Estradiol Substrate_LCMS: Ki.
In general, pKi refers to the negative decadic logarithm of the Ki, by convention in mol/L. `O=C(Nc1sc(C2CCOCC2)nc1C(=O)NCc1ccccc1C(F)(F)F)c1cc(Cl)c(O)c(Cl)n1` [Example 81, 5-(4,6-dichloro-5-hydroxypicolinamido)-2-(tetrahydro-2H-pyran-4-yl)-N-(2-(trifluoromethyl)benzyl)thiazole-4-carboxamide]: the pKi is 6.30 to 7.00.
With `O=C(Nc1sc(N2CCS(=O)(=O)CC2)nc1C(=O)NCc1ccccc1C(F)(F)F)c1cc(Cl)c(O)c(Cl)c1` [Example 79, 5-(3,5-dichloro-4-hydroxybenzamido)-2-(1,1-dioxidothiomorpholino)-N-(2-(trifluoromethyl)benzyl)thiazole-4-carboxamide], the negative logarithm of the Ki (pKi) was 6.30 to 7.00.
On the same count and under the same terms, under `O=C(Nc1sc(-c2cncc(F)c2)nc1C(=O)NCc1ccccc1C(F)(F)F)c1cc(Cl)c(O)c(Cl)c1` [Example 75] stands no less than 7.30; under `O=C(Nc1sc(-c2ccccc2F)nc1C(=O)NCc1ccccc1C(F)(F)F)c1cc(Cl)c(O)c(F)n1` [Example 107, 5-(4-chloro-6-fluoro-5-hydroxypicolinamido)-2-(2-fluorophenyl)-N-(2-(trifluoromethyl)benzyl)thiazole-4-carboxamide], no less than 7.30.
